# Legend:
# physchem [1] = conditions: pH 7.4 buffer
# physchem [2] = conditions: octan-1-ol/water
# in vitro [3] = conditions: human
# in vitro [4] = conditions: hepatocytes
# in vitro [5] = conditions: human, plasma
Structure (SMILES),solubility thermodynamic (physchem [1]) [µM],"logD (physchem [2]; pH 7.4, LogD7.4)",microsomal CLint (in vitro [3]; microsomes) [µL/min/mg],hepatocyte CLint (in vitro [4]) [µL/min/1e6 cells],fraction unbound at 5 h (in vitro [5]; PPB),microsomal CLint (in vitro [3]; liver microsomes) [µL/min/mg],logD (physchem [2]; pH 7.4),fraction unbound at 5 h (in vitro [5])
Cc1cc(CN2CCc3ccccc3C2C(=O)Nc2ccc(Cl)cc2Cl)ccc1OCC(=O)O (centres undefined),166,2.63,15,20,–,–,–,–
CN(C)c1nc(NC[C@H]2CC[C@H](CNS(=O)(=O)c3ccc(Br)cc3OC(F)(F)F)CC2)nc2ccccc12,–,–,117,50.1,0.0005,–,–,–
O=C(CSc1nc2c(c(=O)n1-c1ccccc1)SCC2)Nc1ncc(-c2ccccc2)s1,–,–,–,129,0.0023,> 150,–,–
O=C1Nc2ccccc2B(O)N1c1ccccc1,–,–,5.13,7.94,–,–,1.4,0.179
Clc1ccc2ncc(-c3cccc(NC4CNC4)n3)n2c1,–,1.19,–,19.1,0.163,< 3,–,–
COc1ccc(NC(=O)CCc2c(C)nc3nc(C)nn3c2C)cc1,–,1.4,3.98,3.09,0.176,–,–,–
CC(=O)c1cc2ccc(O)cc2oc1=O,–,0.87,28.2,> 150,0.0149,–,–,–
NC(=O)c1ccc(N(C(N)=O)c2c(F)cccc2F)nc1-c1ccc(F)cc1F [VX-702],–,1.6,–,< 3,0.392,5.13,–,–
Cc1cc(C)cc(-c2nnc(SCC(=O)N3CCN(C(=O)c4ccco4)CC3)o2)c1,–,3,67.6,89.1,0.0321,–,–,–
COc1ccccc1C(=O)Nc1ccc(Cc2ccncc2)cc1,–,–,7,103,0.0024,–,–,–
CC1N=C(N)N=C(N)N1c1ccc(Cl)cc1 (centres undefined),–,-0.8,–,< 3,0.747,3.31,–,–
CSCCC(NC(=O)c1cnccn1)c1nc2ccccc2[nH]1 (centres undefined),–,–,–,74,0.398,31,–,–
O=C(Nc1ccncc1)c1cccc2ccccc12,–,–,–,25.1,–,60.3,3.1,0.069
COc1ccc(N(C(=O)Oc2c(C)cccc2C)c2ccnc(Nc3ccc(N4CCN(C)CC4)cc3)n2)c(OC)c1,–,–,27.5,35.5,–,–,–,0.0017
CN(C)CCNc1cc(-c2ccccc2)nc2cc(-c3ccc(F)cc3)nn12,2.1,4.5,11.2,24,–,–,–,–
COCCNc1nc(NCc2ccccc2F)c2sccc2n1,–,–,–,148,–,> 150,–,0.028
O=C(O)Cc1ccc(N2CCC(CN3CCC(Oc4ccc(Cl)c(Cl)c4)CC3)CC2)cc1,–,–,< 3,9,0.02,–,–,–
CS(=O)(=O)c1ccc([C@H](CC2CCCC2)C(=O)Nc2nccs2)cc1,5.8,3.88,43.6,35.5,–,–,–,–
CS(=O)(=O)c1ccc([C@@H](CC2CCCC2)C(=O)Nc2nccs2)cc1 [Ro-281675],5.5,3.86,29.5,20.9,–,–,–,–
O=c1[nH]c2c(O)ccc([C@@H](O)CNCCc3cccc(CNCCc4ccccc4Cl)c3)c2s1,118,1.63,19,42,–,–,–,–
CCOc1nc2ccc(OCCC3CCN(c4ccc(C)nn4)CC3)cc2o1,–,–,–,4,0.0028,6,–,–

Structure (SMILES),solubility thermodynamic (physchem [1]) [µM],"logD (physchem [2]; pH 7.4, LogD7.4)",microsomal CLint (in vitro [3]; microsomes) [µL/min/mg],hepatocyte CLint (in vitro [4]) [µL/min/1e6 cells],fraction unbound at 5 h (in vitro [5]; PPB),microsomal CLint (in vitro [3]; liver microsomes) [µL/min/mg],logD (physchem [2]; pH 7.4),fraction unbound at 5 h (in vitro [5])
CCN(CC)CCn1c2ccccc2c2cnc(N)c(C#N)c21,58.9,2.7,71,77,–,–,–,–
Cc1[nH]c2ccc(-c3nnc(SCC(=O)N4CCCc5ccccc54)o3)cc2c1C,–,–,–,> 150,–,> 150,–,0.0052
C[C@@H](C(N)=O)c1ccc(OS(=O)(=O)C(F)(F)F)cc1,–,–,–,3,0.134,< 3,–,–
O=C(CSc1nc2c(c(=O)n1-c1ccccc1)SCC2)Nc1ccc(-c2ccccc2)cn1,–,–,> 150,> 150,0.0017,–,–,–
CCNC(=O)C[C@H]1N=C(c2ccc(Cl)cc2)c2cc(OC)ccc2-n2c(C)nnc21,–,–,11.5,6.31,–,–,–,0.069
CC1(C)S[C@@H]2[C@H](NC(=O)C(C(=O)O)c3ccccc3)C(=O)N2[C@H]1C(=O)O (some centres undefined) [CARBENICILLIN],–,–,–,3.39,0.546,6.92,–,–
C[C@]1(O)C[C@@H](c2nc(-c3ccc4ccc(-c5ccccc5)nc4c3)c3c(N)nccn32)C1 [LINSITINIB],1.3,–,–,17,–,17.4,–,–
Cc1ccc(S(=O)(=O)Nc2c(C(=O)N[C@@H](C)C(C)(C)C)c(C)nn2C2CCCCC2)cc1,871,1.97,33,8,–,–,–,–
Cc1c(C(=O)Nc2ccccc2)sc2ncnc(O)c12,22.4,2.13,–,> 150,–,5,–,–
CC[C@@H](Nc1c(Nc2cccc(C(=O)N(C)C)c2O)c(=O)c1=O)c1ccccc1,646,2.14,–,65,–,< 3,–,–
Cc1ccc(CCOCCNS(=O)(=O)CCCNCCc2ccc(O)c3nc(O)sc23)cc1,372,–,–,> 150,–,> 150,–,–
C[C@H]1C[C@@H](NS(=O)(=O)c2cc(Br)ccc2Br)CN1C#N,31.6,2.13,16,39,–,–,–,–
CN1CCN(CCOc2n[nH]c3ncnc(Nc4ccc(OCc5ccccn5)c(Cl)c4)c23)CC1,26.3,2.45,–,13.5,–,30.2,–,–
CCc1nc2ccc(C(=O)NCc3ccc4c(c3)OCO4)cn2c1N(C)Cc1cccs1,–,–,–,> 150,0.0035,> 150,–,–
COc1ccc(-c2nc3c(NCCCN(C)C(=O)C4CCC4)c(Br)cnc3[nH]2)cc1,–,–,–,138,0.0022,> 150,–,–
Cc1ccc(CNC(=O)C2CCCN2S(=O)(=O)c2ccc(F)cc2)cc1 (centres undefined),8.9,2.9,–,> 150,–,> 150,–,–
CCOc1ccc2oc(C(=O)NC(CCSC)c3nc4cnccc4[nH]3)c(C)c2c1 (centres undefined),10.5,4.31,–,21,–,17,–,–
COc1cc(C(=O)OCCCCNC(=N)N)cc(OC)c1O [LEONURINE],–,–,–,138,0.619,< 3,–,–
Nc1nc2ccc(-c3ccncc3)cc2s1,–,–,–,29.5,0.119,20.4,–,–
CNc1nc(C)c(-c2nc(Nc3cccc(N4CCCCC4)c3)ncc2C#N)s1,–,–,–,> 150,0.0019,95.5,–,–

# From ChEMBL document CHEMBL3301361, “Experimental in vitro DMPK and physicochemical data on a set of publicly disclosed compounds”
